Data reported in patent publication US20110217293A1, “Uses of morelloflavone” (priority 2008, published 2011).
Several values for one entry are separate records, joined by “and”; a condition that tells them apart may be missing. Equal values may be shown once. Entries after “also recorded” stand apart in the source; their conditions may differ.

Assays:
[1] = test system: vascular smooth muscle cells; assay: Scratch wound cell migration assay; format: cell-based, mouse; details: for migration index: 18 hrs
Description: Mouse vascular smooth muscle cells, isolated as described (13), were maintained in 231 media (Cascade Biologics, Portland, Oreg.) supplemented with SMGS (Cascade Biologics) in a humidified incubator at 37° C. with 5% CO2. Cells from passages 4-9 were used in all experiments. All experiments were performed in subconfluent, unsynchronized cells growing in SMGS except for the lamellipodium formation assay.
Vascular smooth muscle cells that had been grown to confluence in 6-well culture plates were scratched with a sterile […] pipette tip and exposed to various concentrations of morelloflavone. The cells were allowed to migrate onto the plastic surface for 18 hrs and photographed. A migration index was determined based on the number of cells that migrated onto 1 mm^2 free plastic surface, using the Image J software (NIH).

[2] = test system: vascular smooth muscle cells; assay: Cell attachment; format: cell-based
apoE−/− mice = assay: Mouse carotid artery injury assay (morphometry, TUNEL, Ki-67, p-ERK staining); format: in vivo; details: for External elastic lamina area / Internal elastic lamina area / Luminal area / Medial area / Neointimal area: 0.15% diet
Description: The carotid artery injury assay was performed as described by Kuhel (16). Male apoE−/− mice were obtained from Jackson Laboratory (Bar Harbor, Me.) and maintained on a 12 hour light/dark cycle. All animal experimentation protocols were performed under institutional guidelines of animal welfare, in accordance with NIH guidelines. Mice were fed either normal rodent chow diet (5001, LabDiet) (n=10) or normal chow diet containing 0.15% morelloflavone (w/w) (n=9). This diet corresponded to 200 mg/kg morelloflavone if a 30 gm mouse consumes 4 grams of chow. Mice were placed on these diets for 7 days before they underwent carotid artery denudation by the insertion of an epoxy resin (Epon) probe as described (16).
Briefly, the entire length of the left carotid artery was exposed and the distal bifurcation of the carotid artery was looped proximally and ligated distally with a 7-0 suture. A transverse arteriotomy was made between the 7-0 silk sutures and the resin probe was inserted, advanced toward the aortic arch, and withdrawn 5 times. The probe was then removed, the proximal 7-0 suture was ligated, a 6-0 suture was secured, and the incision was closed with 5-0 sterile surgical gut. After surgery, mice were maintained on these diets 9 for 14 days before they were euthanized. After blood was sampled, the arteries of these mice were perfusion-fixed with 10% buffered formalin (pH 7.0) solution at a constant pressure of 100 mm Hg. The entire neck from each mouse was dissected, fixed further in 10% buffered formalin, decalcified, and then embedded in paraffin. Identical whole neck cross sections of […] were made from the distal side of the neck beginning at the point of the distal 7-0 ligature. Whole neck sections were used to evaluate both the injured and the uninjured control vessels on the same section. For each mouse, the 4 levels of serial sections were taken at […] intervals. These sections were stained by Verhoeff-van Gieson (VVG) staining and subjected to morphometric analyses. Images were digitized and captured using a Sony video connected to a personal computer.
(§1) Measurements were performed at a magnification of 200 using a Scion Image analysis computer program (Frederick, Md.). Data were obtained from the first 2 levels where endothelial denudation occurred. For each artery, the luminal area, area inside the internal elastic lamina (IELA), and the area encircled by external elastic lamina-IELA were measured. The intimal area (IA) was calculated as the IELA minus luminal area. For the determination of serum morelloflavone levels, animal sera were first digested by proteinase K in the presence of 0.01% SDS. Morelloflavone was then extracted into ethyl acetate and lyophilized.
For the analyses of intimal cell proliferation, apopotosis and ERK activation, Ki-67, Terminal deoxynucleotidyl transferase (TdT)-deoxyuridine nick-end labeling (TUNEL), and p-ERK staining, respectively, were performed. Ki-67 was detected using a monoclonal rabbit antibody (Clone TEC-3, DAKO North America, Inc., Carpinteria, Calif.) as described (8-9). Terminal deoxynucleotidyl transferase (TdT)-deoxyuridine nick-end labeling (TUNEL) staining (10) was performed using a FragEL™ DNA fragmentation detection kit (Oncogene Research Products, Boston, Mass.) according to the manufacturer's instructions. The Ki-67 and apoptotic indices, defined as the number of cells with DAB-positive nuclei divided by the total number of cells counted and expressed as a percentage, were then calculated. All cells within the intima were counted. Values are expressed as means±SD. Comparisons of parameters between two groups were made with Student's t test. When appropriate, ANOVA was performed to compare multiple groups. A value of P<0.05 was considered statistically significant.

[3] = Serum morelloflavone level by HPLC; format: in vivo, mouse; details: treated apoE−/− mice, oral 0.15% w/w diet, at sacrifice
Description: as §1
The quantification of morelloflavone was performed by HPLC as described with following modifications. The pure morelloflavone was diluted to varying concentrations ([…]), aliquoted into multiple tubes, and lyophilized. The samples were dissolved in […] of 25% acetonitrile/0.55% acetic acid 10 of which […] were injected into a Vydac C-18 reversed phase HPLC column (Grace Davison Discovery Sciences, Deerfield, Ill.) in an Agilent 1100 HPLC system (San Jose, Calif.). […] The limit of detection (LOD) is defined as the concentration of morelloflavone that yielded a signal to noise of 2:1, and was calculated at 1.06 mM, from the 20 mM standard peak (signal to noise=37.6:1). […]

sPLA2-V = target: T1, sPLA2-V (Homo sapiens, UniProt P39877); assay: sPLA2 enzyme activity assay, Group V; format: biochemical; details: recombinant human sPLA2-V, data not shown
T1 sequence (P39877 21-138): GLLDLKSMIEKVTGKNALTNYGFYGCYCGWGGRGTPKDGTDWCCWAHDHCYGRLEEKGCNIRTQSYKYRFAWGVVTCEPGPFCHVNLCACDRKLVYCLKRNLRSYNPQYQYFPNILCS
Description: Recombinant human sPLA2 isoforms, Group IB, Group IIA, Group V, and Lp-PLA2 were obtained from R&D Systems and Cayman Chemical Co. sPLA2 enzyme activities in the presence of various concentrations of morelloflavone or other inhibitors were determined using a commercially available assay system according to the manufacturer's instructions (Cayman Chemical Co.). Thioetheramide-1-palmitylthio-2-palmitoylamido-1,2-dideoxy-sn-glycero-3-phosphorylcholine (T-PC) and methyl arachidonyl fluorophosphonate (MAFP) were used as inhibitors of sPLA2 (IB, IIA, and V) and Lp-PLA2, respectively, per manufacturers' instructions.

Question: What does the source list for O=C1c2c(O)cc(O)cc2O[C@H](c2ccc(O)cc2)[C@H]1c1c(O)cc(O)c2c(=O)cc(-c3ccc(O)c(O)c3)oc12 [morelloflavone, 5,7, 4′, 5″, 7″, 3″, 4″-heptahydroxy-[3,8″]-flavonylflavanone]?
Answer: effect on vascular smooth muscle cell migration ([1]; 0-100 mM, effect from 1 mM (1 μM)): inhibited in a dose-dependent fashion; also recorded: profound effects on migration; also recorded: blocks; migration index ([1]; 1 mM morelloflavone): 487.6±36.9 cells/mm^2; migration index ([1]; 10 mM morelloflavone): 411.3±39.5 cells/mm^2; migration index ([1]; 100 mM morelloflavone): 191.86±32.8 cells/mm^2; effect on cell attachment [2]: does not affect cell attachment; External elastic lamina area (apoE−/− mice; Injured carotid artery): 103000 ± 14300 µm²; Internal elastic lamina area (apoE−/− mice; Injured carotid artery): 70000 ± 11100 µm²; Luminal area (apoE−/− mice; Injured carotid artery): 62100 ± 10700 µm²; Medial area (apoE−/− mice; Injured carotid artery): 39300 ± 15100 µm²; Neointimal area (apoE−/− mice; Injured carotid artery): 7860 ± 4050 µm²; Neointimal area (apoE−/− mice; Injured carotid artery, listed as Morelloflavone): 7860 ± 4050 µm²; External elastic lamina area (apoE−/− mice; Uninjured carotid artery): 93100 ± 9140 µm²; Internal elastic lamina area (apoE−/− mice; Uninjured carotid artery): 62900 ± 5900 µm²; Luminal area (apoE−/− mice; Uninjured carotid artery): 62300 ± 5900 µm²; Medial area (apoE−/− mice; Uninjured carotid artery): 30200 ± 14400 µm²; Ki-67 indices (apoE−/− mice; neointima of injured carotid artery): 0.17±0.41%; TUNEL indices (apoE−/− mice; neointima of injured carotid artery, index expressed as a percentage): 16.0±4.6; sections with nuclear p-ERK signals in the neointima (apoE−/− mice; one out of 8 sections of treated animals): 12.5%; effect on ERK activation (p-ERK positivity) in the neointima (apoE−/− mice; oral morelloflavone): decreases ERK activation; also recorded: reduced p-ERK positivity; also recorded: less ERK activation; effect on injury-induced neointimal formation (restenosis) (apoE−/− mice; oral, 0.15% w/w in chow, 7 days before and 14 days after injury, apoE−/− mice): significantly less neointimal formation; also recorded: reduced neointimal formation; also recorded: significantly blocked injury-induced neointimal formation; also recorded: blocks restenosis; serum concentration of morelloflavone [3]: 1.37 µM and 1.4 µM; IC50 (sPLA2-V): > 10 µM
